Laboratory results from PubChem BioAssay AID2060907 (Molecular Pharmacology Branch, DTP, NCI, 2025).
Where “and” joins values, the source holds several entries; their conditions need not be identical. Equal entries are not always repeated. Blank lines part the entries; values can stand above or below the molecule they belong to.

System: 388556-164-R-J1-PDC complex spheroid viability
Assay: Anticancer human tumor 388556-164-R-J1-PDC patient-derived colon adenocarcinoma cell line growth inhibition [RAS]
Conditions: for viability, T/C: stronger effect = lower value
How it was run: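 Agents were tested in combination matrices in half-log decrements from a top concentration at or near clinical Cmax (10 microM if undetermined). Targets were multi-cell spheroids of tumour lines plus HUVEC and MSC stromal cells.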

[1] = curve of first compound, second compound 0.00316 µM
[2] = curve of first compound, second compound 0.01 µM
[3] = curve of first compound, second compound 0.0316 µM
[4] = curve of first compound, second compound 0.1 µM
[5] = curve of first compound, second compound 0.316 µM
[6] = curve of first compound, second compound 1 µM
[7] = second compound 0.00316 µM, first compound 0.0316 µM
[8] = second compound 0.00316 µM, first compound 0.1 µM
[9] = second compound 0.00316 µM, first compound 0.316 µM
[10] = second compound 0.00316 µM, first compound 1 µM
[11] = second compound 0.00316 µM, first compound 3.16 µM
[12] = second compound 0.00316 µM, first compound 10 µM
[13] = second compound 0.01 µM, first compound 0.0316 µM
[14] = second compound 0.01 µM, first compound 0.1 µM
[15] = second compound 0.01 µM, first compound 0.316 µM
[16] = second compound 0.01 µM, first compound 1 µM
[17] = second compound 0.01 µM, first compound 3.16 µM
[18] = second compound 0.01 µM, first compound 10 µM
[19] = second compound 0.0316 µM, first compound 0.0316 µM
[20] = second compound 0.0316 µM, first compound 0.1 µM
[21] = second compound 0.0316 µM, first compound 0.316 µM
[22] = second compound 0.0316 µM, first compound 1 µM
[23] = second compound 0.0316 µM, first compound 3.16 µM
[24] = second compound 0.0316 µM, first compound 10 µM
[25] = second compound 0.1 µM, first compound 0.0316 µM
[26] = second compound 0.1 µM, first compound 0.1 µM
[27] = second compound 0.1 µM, first compound 0.316 µM
[28] = second compound 0.1 µM, first compound 1 µM
[29] = second compound 0.1 µM, first compound 3.16 µM
[30] = second compound 0.1 µM, first compound 10 µM
[31] = second compound 0.316 µM, first compound 0.0316 µM
[32] = second compound 0.316 µM, first compound 0.1 µM
[33] = second compound 0.316 µM, first compound 0.316 µM
[34] = second compound 0.316 µM, first compound 1 µM
[35] = second compound 0.316 µM, first compound 3.16 µM
[36] = second compound 0.316 µM, first compound 10 µM
[37] = second compound 1 µM, first compound 0.0316 µM
[38] = second compound 1 µM, first compound 0.1 µM
[39] = second compound 1 µM, first compound 0.316 µM
[40] = second compound 1 µM, first compound 1 µM
[41] = second compound 1 µM, first compound 3.16 µM
[42] = second compound 1 µM, first compound 10 µM
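Also: spheroids exposed to compound for 7 days before readout.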
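For viability, T/C in this document: 100% = DMSO vehicle control luminescence.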

IC50 (curve of first compound, second compound 0.000949 µM): 4.85 µM
IC50 (curve of first compound, second compound 0.003 µM): 4.46 µM
IC50 (curve of first compound, second compound 0.00949 µM): 5.17 µM
IC50 (curve of first compound, second compound 0.03 µM): 4.12 µM
IC50 (curve of first compound, second compound 0.0949 µM): 4.76 µM
IC50 (curve of first compound, second compound 0.3 µM): 2.94 µM
Compound: CCC(CC)c1cc(NC2CCC(N)C2)n2nccc2n1 (centres undefined) + CCn1c(-c2cccnc2C(C)OC)c2c3cc(ccc31)N1CCOC(CC(NC(=O)C(C(C)C)N(C)C(=O)C3(F)CCN(C(=O)C#CC(C)(C)N(C)C)CC3)C(=O)N3CCCC(N3)C(=O)OCC(C)(C)C2)C1
viability, T/C (second compound 0.000949 µM, first compound 0.0316 µM): 101%
viability, T/C (second compound 0.000949 µM, first compound 0.1 µM): 95.6%
viability, T/C (second compound 0.000949 µM, first compound 0.316 µM): 104%
viability, T/C (second compound 0.000949 µM, first compound 1 µM): 106%
viability, T/C (second compound 0.000949 µM, first compound 3.16 µM): 60.2%
viability, T/C (second compound 0.000949 µM, first compound 10 µM): 32.8%
viability, T/C (second compound 0.003 µM, first compound 0.0316 µM): 113%
viability, T/C (second compound 0.003 µM, first compound 0.1 µM): 105%
viability, T/C (second compound 0.003 µM, first compound 0.316 µM): 100%
viability, T/C (second compound 0.003 µM, first compound 1 µM): 104%
viability, T/C (second compound 0.003 µM, first compound 3.16 µM): 57.6%
viability, T/C (second compound 0.003 µM, first compound 10 µM): 31.9%
viability, T/C (second compound 0.00949 µM, first compound 0.0316 µM): 112%
viability, T/C (second compound 0.00949 µM, first compound 0.1 µM): 106%
viability, T/C (second compound 0.00949 µM, first compound 0.316 µM): 102%
viability, T/C (second compound 0.00949 µM, first compound 1 µM): 93.2%
viability, T/C (second compound 0.00949 µM, first compound 3.16 µM): 64%
viability, T/C (second compound 0.00949 µM, first compound 10 µM): 30.4%
viability, T/C (second compound 0.03 µM, first compound 0.0316 µM): 105%
viability, T/C (second compound 0.03 µM, first compound 0.1 µM): 102%
viability, T/C (second compound 0.03 µM, first compound 0.316 µM): 107%
viability, T/C (second compound 0.03 µM, first compound 1 µM): 106%
viability, T/C (second compound 0.03 µM, first compound 3.16 µM): 54.3%
viability, T/C (second compound 0.03 µM, first compound 10 µM): 35.6%
viability, T/C (second compound 0.0949 µM, first compound 0.0316 µM): 110%
viability, T/C (second compound 0.0949 µM, first compound 0.1 µM): 87.3%
viability, T/C (second compound 0.0949 µM, first compound 0.316 µM): 100%
viability, T/C (second compound 0.0949 µM, first compound 1 µM): 103%
viability, T/C (second compound 0.0949 µM, first compound 3.16 µM): 58.3%
viability, T/C (second compound 0.0949 µM, first compound 10 µM): 34.8%
viability, T/C (second compound 0.3 µM, first compound 0.0316 µM): 101%
viability, T/C (second compound 0.3 µM, first compound 0.1 µM): 89.9%
viability, T/C (second compound 0.3 µM, first compound 0.316 µM): 92.6%
viability, T/C (second compound 0.3 µM, first compound 1 µM): 91.6%
viability, T/C (second compound 0.3 µM, first compound 3.16 µM): 47.2%
viability, T/C (second compound 0.3 µM, first compound 10 µM): 34.4%

IC50 (curve of compound): 164 nM [middle of 4 runs]
Compound: O=C(c1ccc(F)c(F)c1Nc1ccc(I)cc1F)N1CC(O)([C@@H]2CCCCN2)C1
viability, T/C (compound 0.01 µM): 93.1% [middle of 4 runs]
viability, T/C (compound 0.0316 µM): 82.8% [middle of 4 runs]
viability, T/C (compound 0.1 µM): 56.3% [middle of 4 runs]
viability, T/C (compound 0.316 µM): 40.9% [middle of 4 runs]
viability, T/C (compound 1 µM): 22.8% [middle of 4 runs]

IC50 (compound alone, run of 08/20/2024): > 0.3 µM
Compound: CCn1c(-c2cccnc2C(C)OC)c2c3cc(ccc31)N1CCOC(CC(NC(=O)C(C(C)C)N(C)C(=O)C3(F)CCN(C(=O)C#CC(C)(C)N(C)C)CC3)C(=O)N3CCCC(N3)C(=O)OCC(C)(C)C2)C1 (centres undefined)
viability, T/C (compound 0.000949 µM): 105% [middle of 6 runs]
viability, T/C (compound 0.003 µM): 107% [middle of 6 runs]
viability, T/C (compound 0.00949 µM): 106% [middle of 6 runs]
viability, T/C (compound 0.03 µM): 102% [middle of 6 runs]
viability, T/C (compound 0.0949 µM): 106% [middle of 6 runs]
viability, T/C (compound 0.3 µM): 100% [middle of 6 runs]

Compound: CC(C)n1nc(-c2ccc3oc(N)nc3c2)c2c(N)ncnc21
viability, T/C (compound 0.000316 µM): 104% and 82.3% and 101% (2×)
viability, T/C (compound 0.00316 µM): 86.8% and 105% (2×) and 98.4%
viability, T/C (compound 0.01 µM): 83% [middle of 4 runs]
viability, T/C (compound 0.0316 µM): 59.4% [middle of 4 runs]
viability, T/C (compound 0.1 µM): 40% (2×) and 49.2% and 51.2%

IC50 [1]: > 10 µM
IC50 [2]: > 10 µM
IC50 [3]: > 10 µM
IC50 [4]: > 10 µM
IC50 [5]: > 10 µM
IC50 [6]: > 10 µM
Compound: CC(=O)OC12COC1CC(O)C1(C)C(=O)C(O)C3=C(C)C(OC(=O)C(O)C(NC(=O)OC(C)(C)C)c4ccccc4)CC(O)(C(OC(=O)c4ccccc4)C21)C3(C)C (centres undefined) + C=CC(=O)N1CCN(c2nc(OCC3CCCN3C)nc3c(F)c(-c4nc(N)cc(C)c4C(F)(F)F)c(Cl)cc23)C(C)C1
viability, T/C [7]: 88.1%
viability, T/C [8]: 80.7%
viability, T/C [9]: 77%
viability, T/C [10]: 75.7%
viability, T/C [11]: 74.6%
viability, T/C [12]: 71.2%
viability, T/C [13]: 82.8%
viability, T/C [14]: 78.8%
viability, T/C [15]: 70.5%
viability, T/C [16]: 80.3%
viability, T/C [17]: 79.4%
viability, T/C [18]: 71.8%
viability, T/C [19]: 84.4%
viability, T/C [20]: 83.4%
viability, T/C [21]: 84.7%
viability, T/C [22]: 76.9%
viability, T/C [23]: 76%
viability, T/C [24]: 71.3%
viability, T/C [25]: 78.3%
viability, T/C [26]: 69.5%
viability, T/C [27]: 72.4%
viability, T/C [28]: 74%
viability, T/C [29]: 78.4%
viability, T/C [30]: 73.2%
viability, T/C [31]: 78.6%
viability, T/C [32]: 81.4%
viability, T/C [33]: 79.1%
viability, T/C [34]: 74.5%
viability, T/C [35]: 72.7%
viability, T/C [36]: 76.6%
viability, T/C [37]: 87.6%
viability, T/C [38]: 79.3%
viability, T/C [39]: 74.9%
viability, T/C [40]: 82.8%
viability, T/C [41]: 76%
viability, T/C [42]: 70.5%

IC50 [1]: > 10 µM
IC50 [2]: > 10 µM
IC50 [3]: > 10 µM
IC50 [4]: > 10 µM
IC50 [5]: > 10 µM
IC50 [6]: > 10 µM
Compound: CC1(O)CCCC1n1c(=O)c(C(F)F)cc2cnc(NC3CCN(S(C)(=O)=O)CC3)nc21 (centres undefined) + C=CC(=O)N1CCN(c2nc(OCC3CCCN3C)nc3c(F)c(-c4nc(N)cc(C)c4C(F)(F)F)c(Cl)cc23)C(C)C1
viability, T/C [7]: 98.3%
viability, T/C [8]: 103%
viability, T/C [9]: 105%
viability, T/C [10]: 99.8%
viability, T/C [11]: 109%
viability, T/C [12]: 73.5%
viability, T/C [13]: 93.7%
viability, T/C [14]: 107%
viability, T/C [15]: 101%
viability, T/C [16]: 98.9%
viability, T/C [17]: 105%
viability, T/C [18]: 77.2%
viability, T/C [19]: 101%
viability, T/C [20]: 104%
viability, T/C [21]: 102%
viability, T/C [22]: 108%
viability, T/C [23]: 115%
viability, T/C [24]: 81%
viability, T/C [25]: 103%
viability, T/C [26]: 108%
viability, T/C [27]: 99.5%
viability, T/C [28]: 99.2%
viability, T/C [29]: 102%
viability, T/C [30]: 76%
viability, T/C [31]: 102%
viability, T/C [32]: 91.7%
viability, T/C [33]: 96.9%
viability, T/C [34]: 97.7%
viability, T/C [35]: 101%
viability, T/C [36]: 75.3%
viability, T/C [37]: 98.7%
viability, T/C [38]: 102%
viability, T/C [39]: 100%
viability, T/C [40]: 111%
viability, T/C [41]: 104%
viability, T/C [42]: 68.7%
